Source: patent publication US20230063230A1, “NURR1 RECEPTOR MODULATORS” (priority 2019, published 2023)

What was measured:
[1] = molecular target: T1, Nurr1 (Homo sapiens, UniProt P43354); assay: Binding SPR
Target sequence in this assay (P43354 360-595 limits assumed): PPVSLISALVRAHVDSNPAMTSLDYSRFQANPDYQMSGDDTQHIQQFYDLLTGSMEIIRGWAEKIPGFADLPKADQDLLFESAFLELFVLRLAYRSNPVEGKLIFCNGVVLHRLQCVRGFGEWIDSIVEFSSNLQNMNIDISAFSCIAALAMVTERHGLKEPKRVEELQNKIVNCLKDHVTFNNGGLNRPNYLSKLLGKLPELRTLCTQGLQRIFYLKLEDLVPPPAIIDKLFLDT

[2] = molecular target: T1, Nurr1; assay: Binding MST
Target sequence in this assay (P43354 360-595 limits assumed): as above

[3] = system: Vmat2 in MN9D; assay: cells; assay type: cell-based; settings: cpds tested at 10 μM, analogs of compound 87, read-out: qPCR MN9D Vmat2
[4] = system: TH in SHSY5Y; assay: qPCR SHSY5Y TH; assay type: cell-based; settings: Homo sapiens, SH-SY5Y, cpds tested at 10 μM
[5] = system: Nurr1 in MN9D; assay: qPCR MN9D Nurr1; assay type: cell-based; settings: cpds tested at 10 μM, analogs of compound 87
[6] = molecular target: T1, Nurr1; assay: Luciferase cellular assay; assay type: cell-based; design: expressed in transfected cells; host or cells: SK-N-BE(2)C cells (ATCC CRL-2268); settings: cpds tested at 10 μM; analogs of compound 87
Target sequence in this assay (P43354 328-598): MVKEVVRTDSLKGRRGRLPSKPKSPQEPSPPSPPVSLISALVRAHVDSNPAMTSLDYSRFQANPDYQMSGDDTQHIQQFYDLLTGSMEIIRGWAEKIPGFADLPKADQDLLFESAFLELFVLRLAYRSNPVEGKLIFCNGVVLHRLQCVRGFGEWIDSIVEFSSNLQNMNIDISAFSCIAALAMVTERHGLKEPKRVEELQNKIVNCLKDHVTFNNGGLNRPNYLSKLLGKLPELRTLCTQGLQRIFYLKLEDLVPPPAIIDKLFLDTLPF

| SMILES | Binding SPR ([1]; analogs of compound 87) | Binding MST ([2]; analogs of compound 87) | further results |
| --- | --- | --- | --- |
| CC(C)(NC(=O)c1cc(Cl)cc(Cl)c1)c1cn(CCC(=O)O)nn1 [GWL 2.129, 3-(4-(2-(3,5-dichlorobenzamido)propan-2-yl)-1H-1,2,3-triazol-1-yl)propanoic acid] | + | – | – |
| CC(C)(NC(=O)c1cc(Cl)cc(Cl)c1)c1cn(CC(=O)O)nn1 [GWL 2.131, 2-(4-(2-(3,5-dichlorobenzamido)propan-2-yl)-1H-1,2,3-triazol-1-yl)acetic acid] | + | – | – |
| CC(C)(NC(=O)c1cc(Cl)cc(Cl)c1)c1cn(CCC(N)=O)nn1 [GWL 2.154, N-(2-(1-(3-amino-3-oxopropyl)-1H-1,2,3-triazol-4-yl)propan-2-yl)-3,5-dichlorobenzamide] | + | – | – |
| CC(C)(NC(=O)c1cc(Cl)cc(Cl)c1)c1cn(-c2ccoc2)nn1 [GWL 3.001, 3,5-dichloro-N-(2-(1-(furan-3-yl)-1H-1,2,3-triazol-4-yl)propan-2-yl)benzamide] | + | – | – |
| CC(C)(NC(=O)c1cc(Cl)cc(Cl)c1)c1cn(CC(N)=O)nn1 [GWL 3.008, N-(2-(1-(2-amino-2-oxoethyl)-1H-1,2,3-triazol-4-yl)propan-2-yl)-3,5-dichlorobenzamide] | + | + | – |
| O=C(COc1ccc(Cl)c(Cl)c1)NCCc1ccc(O)c(O)c1 [SP 60, 2-(3,4-dichlorophenoxy)-N-(3,4-dihydroxyphenethyl)acetamide] | – | – | Binding SPR ([1]; analogs of compound 85): +; Binding MST ([2]; analogs of compound 85): + |
| CCn1cc(C(C)(C)NC(=O)c2cc(Cl)cc(Cl)c2)nn1 [SP 65, 3,5-dichloro-N-(2-(1-ethyl-1H-1,2,3-triazol-4-yl)propan-2-yl)benzamide] | + | + | – |
| O=C(COc1ccc(Cl)c(Cl)c1)NCc1ccc(O)c(O)c1 [SP 95, 2-(3,4-dichlorophenoxy)-N-(3,4-dihydroxybenzyl)acetamide] | – | – | Binding SPR ([1]; analogs of compound 85): +; Binding MST ([2]; analogs of compound 85): + |
| CC(C)(NC(=O)c1cc(Cl)cc(Cl)c1)c1cn(Cc2ccccc2)nn1 [SP 98, N-(2-(1-benzyl-1H-1,2,3-triazol-4-yl)propan-2-yl)-3,5-dichlorobenzamide] | + | + | – |
| CC(C)(NC(=O)c1cc(Cl)cc(Cl)c1)c1cn(CCc2ccccc2)nn1 [SP 99, 3,5-dichloro-N-(2-(1-phenethyl-1H-1,2,3-triazol-4-yl)propan-2-yl)benzamide] | + | + | – |
| CC(C)(NC(=O)c1cc(Cl)cc(Cl)c1)c1cn(CCc2ccc(Cl)c(Cl)c2)nn1 [SP 100, 3,5-dichloro-N-(2-(1-(3,4-dichlorophenethyl)-1H-1,2,3-triazol-4-yl)propan-2-yl)benzamide] | + | – | – |
| CC(C)(NCc1cc(Cl)cc(Cl)c1)c1cn(CCc2ccc(Cl)c(Cl)c2)nn1 [SP 136, N-(3,5-dichlorobenzyl)-2-(1-(3,4-dichlorophenethyl)-1H-1,2,3-triazol-4-yl)propan-2-amine] | + | + | – |
| CC(C)(NC(=O)c1ccccc1)c1cn(CCc2ccc(Cl)c(Cl)c2)nn1 [SP 138, N-(2-(1-(3,4-dichlorophenethyl)-1H-1,2,3-triazol-4-yl)propan-2-yl)benzamide] | + | + | – |
| CC(C)(NC(=O)c1ccc(Cl)c(Cl)c1)c1cn(CCc2ccc(Cl)c(Cl)c2)nn1 [SP 146, 3,4-dichloro-N-(2-(1-(3,4-dichlorophenethyl)-1H-1,2,3-triazol-4-yl)propan-2-yl)benzamide] | – | – | Binding SPR ([1]; analogs of compound 85): + |
| CC(C)(NC(=O)c1cc(Cl)cc(Cl)c1)c1cn(CCc2ccc(Br)cc2)nn1 [SP 147, N-(2-(1-(4-bromophenethyl)-1H-1,2,3-triazol-4-yl)propan-2-yl)-3,5-dichlorobenzamide] | + | – | – |
| CC(=O)SCCn1cc(C(C)(C)NC(=O)c2cc(Cl)cc(Cl)c2)nn1 [SP 151, S-2-(4-(2-(3,5-dichlorobenzamido)propan-2-yl)-1H-1,2,3-triazol-1-yl)ethyl ethanethioate] | – | – | fold induction at 10 µM [3]: > 1.5 |
| CC(C)(NC(=O)c1cc(Cl)cc(Cl)c1)c1cnn(CCS)c1 [SP 153, 3,5-dichloro-N-(2-(1-(2-mercaptoethyl)-1H-pyrazol-4-yl)propan-2-yl)benzamide] | +++ | +++ | fold induction at 10 µM [4]: > 4; fold induction at 10 µM [5]: > 4; fold induction at 10 µM [3]: > 1.5 |
| CC(C)(NC(=O)c1cc(Cl)cc(Cl)c1)c1cnn(CCN)c1 [SP 155, N-(2-(1-(2-aminoethyl)-1H-pyrazol-4-yl)propan-2-yl)-3,5-dichlorobenzamide] | + | + | – |

| SMILES | Binding SPR ([1]; analogs of compound 87) | Binding MST ([2]; analogs of compound 87) | further results |
| --- | --- | --- | --- |
| CC(C)(NC(=O)c1cc(Br)cc(Br)c1)c1cn(CCS)nn1 [SP 156, 3,5-dibromo-N-(2-(1-(2-mercaptoethyl)-1H-1,2,3-triazol-4-yl)propan-2-yl)benzamide] | ++ | ++ | Luciferase [6]: +++ (+++ =>4−fold); fold induction at 10 µM [4]: > 4 |
| CC(C)(NC(=O)c1ccc(Cl)c(Cl)c1)c1cn(CCS)nn1 [SP 157, 3,4-dichloro-N-(2-(1-(2-mercaptoethyl)-1H-1,2,3-triazol-4-yl)propan-2-yl)benzamide] | + | +++ | Luciferase [6]: +++ (+++ =>4−fold); fold induction at 10 µM [3]: > 4 |
| CC(C)(NC(=O)c1cc(F)cc(F)c1)c1cn(CCS)nn1 [SP 158, 3,5-difluoro-N-(2-(1-(2-mercaptoethyl)-1H-1,2,3-triazol-4-yl)propan-2-yl)benzamide] | + | ++ | – |
| C=CC(=O)n1cc(C(C)(C)NC(=O)c2cc(Cl)cc(Cl)c2)cn1 [SP 162, N-(2-(1-acryloyl-1H-pyrazol-4-yl)propan-2-yl)-3,5-dichlorobenzamide] | – | ++ | – |
| CC(C)C(=O)SCCn1cc(C(C)(C)NC(=O)c2cc(Cl)cc(Cl)c2)nn1 [SP 163, S-2-(4-(2-(3,5-dichlorobenzamido)propan-2-yl)-1H-1,2,3-triazol-1-yl)ethyl 2-methylpropanethioate] | – | – | fold induction at 10 µM [4]: > 1.5; fold induction at 10 µM [3]: > 4 |
| CC(C)(NC(=O)c1cc(Cl)cc(Cl)c1)c1cn(CCSC(=O)c2ccccc2)nn1 [SP 164, S-2-(4-(2-(3,5-dichlorobenzamido)propan-2-yl)-1H-1,2,3-triazol-1-yl)ethyl benzothioate] | + | – | fold induction at 10 µM [3]: > 4 |
| CC(=O)SCCn1cc(C(C)(C)NC(=O)c2cc(Br)cc(Br)c2)nn1 [SP 173, S-2-(4-(2-(3,5-dibromobenzamido)propan-2-yl)-1H-1,2,3-triazol-1-yl)ethyl ethanethioate] | – | – | Luciferase [6]: +++ (+++ =>4−fold); fold induction at 10 µM [4]: > 1.5 |
| CC(C)(NC(=O)c1cc(Cl)cc(Cl)c1)c1cnn(COCC[Si](C)(C)C)c1 [SP 174, 3,5-dichloro-N-(2-(1-((2-(trimethylsilyl)ethoxy)methyl)-1H-pyrazol-4-yl)propan-2-yl)benzamide] | + | – | fold induction at 10 µM [5]: > 4 |
| COc1ccc(Cn2cc(C(C)(C)NC(=O)c3cc(Cl)cc(Cl)c3)nn2)cc1 [SP 178, 3,5-dichloro-N-(2-(1-(4-methoxybenzyl)-1H-1,2,3-triazol-4-yl)propan-2-yl)benzamide] | – | + | – |
| CSSCCn1cc(C(C)(C)NC(=O)c2cc(Cl)cc(NC(C)=O)c2)nn1 [SP 183] | + | + | – |
| CC(=O)SCCn1cc(C(C)(C)NC(=O)c2cc(Cl)cc(Cl)c2)cn1 [SP 184, S-2-(4-(2-(3,5-dichlorobenzamido)propan-2-yl)-1H-pyrazol-1-yl)ethyl ethanethioate] | – | – | fold induction at 10 µM [5]: > 4; fold induction at 10 µM [3]: > 1.5 |
| CC(=O)SCCn1cc(C(C)(C)NC(=O)c2cc(Cl)cc(N3CCN(C)CC3)c2)nn1 [SP 186, S-2-(4-(2-(3-chloro-5-(4-methylpiperazin-1-yl)benzamido)propan-2-yl)-1H-1,2,3-triazol-1-yl)ethyl ethanethioate] | – | – | Luciferase [6]: ++ (++ => 1.5-fold); fold induction at 10 µM [3]: > 1.5 |
| COc1cc(OC)cc(C(=O)NC(C)(C)c2cn(CCS)nn2)c1 [SP 191, N-(2-(1-(2-mercaptoethyl)-1H-1,2,3-triazol-4-yl)propan-2-yl)-3,5-dimethoxybenzamide] | + | ++ | fold induction at 10 µM [5]: > 4; fold induction at 10 µM [3]: > 1.5 |
| COc1cc(OC)cc(C(=O)NC(C)(C)c2cn(CCSC(C)=O)nn2)c1 [SP 193, S-2-(4-(2-(3,5-dimethoxybenzamido)propan-2-yl)-1H-1,2,3-triazol-1-yl)ethyl ethanethioate] | – | – | fold induction at 10 µM [3]: > 1.5 |
| CC(=O)SCCn1cc(C(C)(C)NC(=O)c2cnc3ccccc3c2)nn1 [SP 194, S-2-(4-(2-(quinoline-3-carboxamido)propan-2-yl)-1H-1,2,3-triazol-1-yl)ethyl ethanethioate] | – | – | fold induction at 10 µM [5]: > 4; fold induction at 10 µM [3]: > 1.5 |
| C=CC(=O)NNC(=O)COc1ccc(Cl)c(Cl)c1 [UNI6-001, N′-(2-(3,4-dichlorophenoxy)acetyl)acrylohydrazide] | – | – | Binding MST ([2]; analogs of compound 85): + |
| C=CS(=O)(=O)NNC(=O)COc1ccc(Cl)c(Cl)c1 [UNI6-003, N′-(2-(3,4-dichlorophenoxy)acetyl)ethenesulfonohydrazide] | – | – | Binding MST ([2]; analogs of compound 85): + |
